# Test results taken from patent publication US20240279240A1, “HETEROCYCLIC DERIVATIVES AS JANUS KINASE INHIBITORS” (CHIESI FARMACEUTICI S.P.A., priority 2021, published 2024).
# How the values were obtained:
# JAK 3 = target: T1, JAK 3 (Homo sapiens, UniProt P52333); assay: Biochemical potency on JAK3, TR-FRET LANCE Ultra kinase assay (examples 1-99); conditions: ATP at Km (0.2 μM), read-out: JAK3 inhibitory activity (pIC50 class) (converted)
# T1 sequence (P52333 1-1124): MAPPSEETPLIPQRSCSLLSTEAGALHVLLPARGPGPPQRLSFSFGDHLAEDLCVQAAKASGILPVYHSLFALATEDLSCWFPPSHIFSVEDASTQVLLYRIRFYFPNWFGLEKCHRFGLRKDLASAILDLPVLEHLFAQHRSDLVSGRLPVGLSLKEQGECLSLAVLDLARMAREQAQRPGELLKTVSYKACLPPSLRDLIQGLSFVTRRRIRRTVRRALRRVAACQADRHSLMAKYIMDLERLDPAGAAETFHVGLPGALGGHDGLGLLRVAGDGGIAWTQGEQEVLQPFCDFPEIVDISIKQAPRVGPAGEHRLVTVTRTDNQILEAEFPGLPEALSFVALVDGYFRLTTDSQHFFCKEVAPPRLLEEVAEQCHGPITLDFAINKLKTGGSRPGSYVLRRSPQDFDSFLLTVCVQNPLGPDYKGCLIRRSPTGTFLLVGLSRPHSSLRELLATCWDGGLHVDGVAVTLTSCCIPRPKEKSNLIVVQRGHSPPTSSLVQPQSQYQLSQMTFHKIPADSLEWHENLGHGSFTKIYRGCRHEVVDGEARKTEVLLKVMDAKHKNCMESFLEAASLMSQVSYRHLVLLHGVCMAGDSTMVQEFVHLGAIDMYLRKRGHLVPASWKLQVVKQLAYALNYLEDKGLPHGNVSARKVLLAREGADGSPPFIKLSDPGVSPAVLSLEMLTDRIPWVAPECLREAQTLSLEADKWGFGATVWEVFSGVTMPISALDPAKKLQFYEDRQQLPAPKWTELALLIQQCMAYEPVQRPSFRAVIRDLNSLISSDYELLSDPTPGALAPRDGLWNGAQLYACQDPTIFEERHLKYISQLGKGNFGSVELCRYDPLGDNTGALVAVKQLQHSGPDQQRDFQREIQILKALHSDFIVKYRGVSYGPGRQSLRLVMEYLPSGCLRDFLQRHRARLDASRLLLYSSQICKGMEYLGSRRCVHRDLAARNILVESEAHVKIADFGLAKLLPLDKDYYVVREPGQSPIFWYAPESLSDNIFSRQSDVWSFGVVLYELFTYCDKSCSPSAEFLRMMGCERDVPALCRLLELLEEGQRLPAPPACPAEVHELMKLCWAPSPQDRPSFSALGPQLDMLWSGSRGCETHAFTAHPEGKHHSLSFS
# Description: (§1) The objective of this study was to assess the capability of compounds to inhibit all 4 JAK isoforms activity in a cell-free environment. Assay for JAK 1, JAK 2, JAK 3 and TYK2 were performed by Time-resolved fluorescence resonance energy transfer (TR-FRET) technology. It consists in the interaction of two labelled binding partners detected by the energy transfer from an excited donor to an acceptor dye and measurement of light emission by the acceptor dye. LANCE Ultra kinase assay was used. In presence of JAK 1, JAK 2, JAK 3 and TYK2 kinases and ATP (corresponding to Km), the ULight peptide substrate (LANCE Ulight-JAK-1 (Tyr1023) Peptide, Perkin Elmer, TRF0121) is phosphorylated. It is then captured by Eu-anti-phospho-substrate antibody (LANCE Eu-W1024 Anti-phosphotyrosine (PT66), Perkin Elmer, AD0069), which bring the Eu-chelate donor and ULight acceptor dyes into close proximity. Upon excitation at 320 nm, the Eu-chelate transfers its energy to the ULight dye, resulting in a fluorescent light emission at 665 nm.
# (§2) Serial dilutions of compounds in pure DMSO are prepared from 10 mM DMSO stock solutions. Compounds were tested in 384-well plate for 11 consecutive 5-fold dilutions starting from 20 μM highest concentration (20 μM-[…]). 200 nL of compound were transferred from mother plate to test plate by using Mosquito (TTP labtech). Assay was performed in 384-well Perkin Elmer test plate in 20 μL assay volume (kinase reaction) and 40 μL total volume (stopping reagent and antibody detection reagents). In 10 μL of substrate solution (peptide+ATP) 30/50/20/10 nM of peptide and 20/0.7/0.2/12 μM of ATP were added for JAK 1, JAK 2, JAK 3 and TYK2 respectively. 10 μL of enzyme solution was added to kinase reaction at these concentrations: 0.15/0.083/0.025/0.144 ng/μL of JAK 1, JAK 2, JAK 3 and TYK2 respectively. After shaking and 1.5 h of incubation at r.t., 20 μL of Stop (10 μL EDTA) and Detection mixture (10 μL Europium-anti-phospho antibody, final: 0.5 nM) were added. Reading was performed after 1 h of incubation on a EnVision 2104 reader (Perkin Elmer).
# (§3) Calculation of IC50 data, curves and QC analysis was performed by using Excel tool and GraphPadPrism software, v9. Briefly, individual concentration-effect curves are generated by plotting the logarithm of the tested concentration of tested compounds (X) vs. corresponding percent inhibition values (Y) using least squares (ordinary) fit. Best fit IC50 values are calculated using Log(inhibitor) vs. normalized response—Variable slope equation, where Y=100/(1+10^((Log IC50−X)*HillSlope)). QC criteria parameters (Z′, S:B, R2, HillSlope) were checked for every IC50 curve. Calculation of IC50 data, curves and QC analysis were made using Excel tools and GraphPadPrism software. QC criteria parameters: Z′≥0.5, Hill Slope range 0.5 to 5, S:B>2.
# TYK2 = TYK2 (Homo sapiens, UniProt P29597); assay: Biochemical potency on Tyk2, TR-FRET LANCE Ultra kinase assay (examples 1-99); conditions: ATP at Km (12 μM), read-out: Tyk2 inhibitory activity (pIC50 class) (converted)
# Description: as §1, §2, §3
# JAK 1 = JAK 1 (Homo sapiens, UniProt P23458); assay: Biochemical potency on JAK1, TR-FRET LANCE Ultra kinase assay (examples 1-99); conditions: ATP at Km (20 μM), read-out: JAK1 inhibitory activity (pIC50 class) (converted)
# Description: as §1, §2, §3
# JAK 2 = JAK 2 (Homo sapiens, UniProt O60674); assay: Biochemical potency on JAK2, TR-FRET LANCE Ultra kinase assay (examples 1-99); conditions: ATP at Km (0.7 μM), read-out: JAK2 inhibitory activity (pIC50 class) (converted)
# Description: as §1, §2, §3
# Chain of TYK2 (P29597 whole entry): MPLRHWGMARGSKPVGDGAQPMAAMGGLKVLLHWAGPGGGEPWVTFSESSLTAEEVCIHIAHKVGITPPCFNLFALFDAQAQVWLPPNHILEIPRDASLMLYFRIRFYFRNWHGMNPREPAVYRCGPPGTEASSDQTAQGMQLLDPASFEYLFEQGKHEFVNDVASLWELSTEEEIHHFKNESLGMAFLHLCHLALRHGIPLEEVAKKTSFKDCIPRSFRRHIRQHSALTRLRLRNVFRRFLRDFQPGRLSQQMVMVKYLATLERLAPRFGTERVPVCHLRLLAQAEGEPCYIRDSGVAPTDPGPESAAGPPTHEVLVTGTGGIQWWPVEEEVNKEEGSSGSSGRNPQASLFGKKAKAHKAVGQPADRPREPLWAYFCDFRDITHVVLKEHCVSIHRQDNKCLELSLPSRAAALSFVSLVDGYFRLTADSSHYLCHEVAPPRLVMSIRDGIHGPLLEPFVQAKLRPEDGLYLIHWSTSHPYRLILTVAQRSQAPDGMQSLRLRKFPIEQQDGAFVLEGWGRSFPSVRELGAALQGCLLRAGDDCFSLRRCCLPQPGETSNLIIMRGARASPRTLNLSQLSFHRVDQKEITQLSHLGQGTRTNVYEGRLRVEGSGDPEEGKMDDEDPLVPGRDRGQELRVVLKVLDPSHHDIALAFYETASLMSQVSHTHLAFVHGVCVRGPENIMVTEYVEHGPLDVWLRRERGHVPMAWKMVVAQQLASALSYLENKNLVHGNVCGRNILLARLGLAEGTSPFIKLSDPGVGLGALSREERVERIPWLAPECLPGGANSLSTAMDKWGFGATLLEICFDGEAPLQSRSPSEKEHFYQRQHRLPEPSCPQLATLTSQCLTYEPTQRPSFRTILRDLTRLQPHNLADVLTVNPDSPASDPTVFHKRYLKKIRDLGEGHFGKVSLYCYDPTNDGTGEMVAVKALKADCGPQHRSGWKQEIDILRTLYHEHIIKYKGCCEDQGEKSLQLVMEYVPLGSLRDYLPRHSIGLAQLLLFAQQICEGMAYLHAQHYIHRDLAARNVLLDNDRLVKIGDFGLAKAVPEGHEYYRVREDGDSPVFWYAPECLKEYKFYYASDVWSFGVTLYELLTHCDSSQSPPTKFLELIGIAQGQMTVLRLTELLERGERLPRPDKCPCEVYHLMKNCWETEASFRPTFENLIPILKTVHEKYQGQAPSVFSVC
# Chain of JAK 1 (P23458 whole entry): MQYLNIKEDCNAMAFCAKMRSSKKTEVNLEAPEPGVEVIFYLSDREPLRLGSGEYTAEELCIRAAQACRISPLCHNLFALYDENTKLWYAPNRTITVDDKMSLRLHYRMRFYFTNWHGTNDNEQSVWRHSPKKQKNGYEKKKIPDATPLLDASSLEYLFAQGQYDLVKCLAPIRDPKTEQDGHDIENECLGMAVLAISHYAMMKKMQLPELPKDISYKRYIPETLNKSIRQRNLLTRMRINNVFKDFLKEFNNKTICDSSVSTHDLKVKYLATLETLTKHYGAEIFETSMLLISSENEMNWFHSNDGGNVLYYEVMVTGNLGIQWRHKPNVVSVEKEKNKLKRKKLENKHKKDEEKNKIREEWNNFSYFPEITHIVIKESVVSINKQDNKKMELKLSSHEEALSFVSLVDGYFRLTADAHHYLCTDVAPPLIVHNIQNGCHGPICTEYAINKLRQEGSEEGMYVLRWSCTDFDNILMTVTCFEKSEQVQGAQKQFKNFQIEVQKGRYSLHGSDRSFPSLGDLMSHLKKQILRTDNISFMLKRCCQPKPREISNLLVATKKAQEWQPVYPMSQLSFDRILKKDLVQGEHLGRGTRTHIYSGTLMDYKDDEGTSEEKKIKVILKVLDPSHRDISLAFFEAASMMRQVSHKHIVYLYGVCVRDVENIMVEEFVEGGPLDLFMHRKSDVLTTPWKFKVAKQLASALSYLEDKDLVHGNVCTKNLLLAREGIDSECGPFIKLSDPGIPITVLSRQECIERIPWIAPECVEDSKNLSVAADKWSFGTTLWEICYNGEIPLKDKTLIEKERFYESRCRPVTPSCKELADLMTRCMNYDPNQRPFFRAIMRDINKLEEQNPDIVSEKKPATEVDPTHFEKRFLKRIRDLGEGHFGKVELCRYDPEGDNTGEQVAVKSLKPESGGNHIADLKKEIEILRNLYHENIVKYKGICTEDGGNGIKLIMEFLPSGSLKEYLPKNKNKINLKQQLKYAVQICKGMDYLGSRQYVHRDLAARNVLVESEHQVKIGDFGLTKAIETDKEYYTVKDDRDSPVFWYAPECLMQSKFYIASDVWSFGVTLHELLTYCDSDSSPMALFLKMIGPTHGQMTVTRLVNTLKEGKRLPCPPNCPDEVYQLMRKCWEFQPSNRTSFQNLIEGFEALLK
# Chain of JAK 2 (O60674 whole entry): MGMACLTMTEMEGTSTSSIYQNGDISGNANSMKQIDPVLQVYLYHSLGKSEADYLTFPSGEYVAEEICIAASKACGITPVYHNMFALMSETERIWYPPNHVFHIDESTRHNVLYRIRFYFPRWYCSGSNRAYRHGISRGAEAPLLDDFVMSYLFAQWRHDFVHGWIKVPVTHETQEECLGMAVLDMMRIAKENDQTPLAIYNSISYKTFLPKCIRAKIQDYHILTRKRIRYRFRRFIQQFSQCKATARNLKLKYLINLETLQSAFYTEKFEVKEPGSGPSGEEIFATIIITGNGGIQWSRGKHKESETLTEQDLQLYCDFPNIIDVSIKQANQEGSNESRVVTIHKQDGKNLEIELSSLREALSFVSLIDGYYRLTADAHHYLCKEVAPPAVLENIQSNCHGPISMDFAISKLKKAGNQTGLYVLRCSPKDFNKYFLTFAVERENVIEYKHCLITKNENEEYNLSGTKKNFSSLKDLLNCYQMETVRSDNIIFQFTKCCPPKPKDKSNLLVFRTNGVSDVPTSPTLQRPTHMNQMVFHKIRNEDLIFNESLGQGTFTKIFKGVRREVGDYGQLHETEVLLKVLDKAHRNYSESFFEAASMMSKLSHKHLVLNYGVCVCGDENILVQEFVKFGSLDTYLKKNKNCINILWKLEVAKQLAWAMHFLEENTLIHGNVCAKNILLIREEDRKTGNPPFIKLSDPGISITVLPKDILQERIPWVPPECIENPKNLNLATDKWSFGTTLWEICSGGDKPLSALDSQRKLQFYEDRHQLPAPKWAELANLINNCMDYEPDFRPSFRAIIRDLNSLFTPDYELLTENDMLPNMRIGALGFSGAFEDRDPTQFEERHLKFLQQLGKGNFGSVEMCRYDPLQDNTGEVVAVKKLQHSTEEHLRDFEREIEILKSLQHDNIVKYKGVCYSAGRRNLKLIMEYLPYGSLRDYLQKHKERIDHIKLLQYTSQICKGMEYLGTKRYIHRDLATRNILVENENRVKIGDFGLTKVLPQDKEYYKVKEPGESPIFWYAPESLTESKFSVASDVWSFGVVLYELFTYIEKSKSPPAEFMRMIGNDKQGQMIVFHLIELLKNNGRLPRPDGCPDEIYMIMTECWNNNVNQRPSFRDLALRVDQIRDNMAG
Compound,IC50 (JAK 3) [nM],IC50 (TYK2) [nM],IC50 (JAK 1) [nM],IC50 (JAK 2) [nM]
"CCCS(=O)(=O)c1ccc(OC)c(-n2nc(C)c3cnc(-c4cnn5cccnc45)cc32)c1 [Example 10, 1-(2-methoxy-5-(propylsulfonyl)phenyl)-3-methyl-6-(pyrazolo[1,5-a]pyrimidin-3-yl)-1H-pyrazolo[4,3-c]pyridine]",≤ 5.01,> 50.1,5.01 to 50.1,5.01 to 50.1
"COc1ccc(NS(C)(=O)=O)cc1-n1nc(NCCN(C)C)c2cnc(-c3cnn4cccnc34)cc21 [Example 86, N-(3-(3-((2-(dimethylamino)ethyl)amino)-6-(pyrazolo[1,5-a]pyrimidin-3-yl)-1H-pyrazolo[4,3-c]pyridin-1-yl)-4-methoxyphenyl)methanesulfonamide]",5.01 to 50.1,> 50.1,> 50.1,5.01 to 50.1
"COc1ccc(Cl)cc1-n1ncc2c(NCCNC(C)=O)nc(-c3cnn4cccnc34)cc21 [Example 53, N-(2-((1-(5-chloro-2-methoxyphenyl)-6-(pyrazolo[1,5-a]pyrimidin-3-yl)-1H-pyrazolo[4,3-c]pyridin-4-yl)amino)ethyl)acetamide]",> 50.1,> 50.1,5.01 to 50.1,> 50.1
"O=C(c1nn(-c2cc(Cl)ccc2OC(F)F)c2cc(-c3cnn4cccnc34)ncc12)N1CCS(=O)(=O)CC1 [Example 35, (1-(5-chloro-2-(difluoromethoxy)phenyl)-6-(pyrazolo[1,5-a]pyrimidin-3-yl)-1H-pyrazolo[4,3-c]pyridin-3-yl)(1,1-dioxidothiomorpholino)methanone]",5.01 to 50.1,5.01 to 50.1,5.01 to 50.1,5.01 to 50.1
"COc1ccc(C(F)F)cc1-n1nc(NCCN(C)C)c2cnc(Nc3ncc[nH]c3=O)cc21 [Example 98, 3-((1-(5-(difluoromethyl)-2-methoxyphenyl)-3-((2-(dimethylamino)ethyl)amino)-1H-pyrazolo[4,3-c]pyridin-6-yl)amino)pyrazin-2(1H)-one]",5.01 to 50.1,5.01 to 50.1,5.01 to 50.1,5.01 to 50.1
"CNc1nc(-c2cnn3cccnc23)cc2c1cnn2-c1cc(Cl)ccc1OC [Example 52, 1-(5-chloro-2-methoxyphenyl)-N-methyl-6-(pyrazolo[1,5-a]pyrimidin-3-yl)-1H-pyrazolo[4,3-c]pyridin-4-amine]",> 50.1,> 50.1,> 50.1,5.01 to 50.1
"COc1ccc(S(=O)(=O)CCCO)cc1-n1nc(C)c2cnc(-c3cnn4cccnc34)cc21 [Example 9, 3-((4-methoxy-3-(3-methyl-6-(pyrazolo[1,5-a]pyrimidin-3-yl)-1H-pyrazolo[4,3-c]pyridin-1-yl)phenyl)sulfonyl)propan-1-ol]",5.01 to 50.1,> 50.1,5.01 to 50.1,≤ 5.01
"Cc1nn(-c2cc(C(=O)Nc3nccs3)ccc2OC(F)F)c2cc(-c3cnn4cccnc34)ncc12 [Example 66, 4-(difluoromethoxy)-3-(3-methyl-6-(pyrazolo[1,5-a]pyrimidin-3-yl)-1H-pyrazolo[4,3-c]pyridin-1-yl)-N-(thiazol-2-yl)benzamide]",≤ 5.01,> 50.1,5.01 to 50.1,5.01 to 50.1
"COc1ccc(S(C)(=O)=O)cc1-n1nc(NCCN2CCOCC2)c2cnc(-c3cnn4cccnc34)cc21 [Example 43, 1-(2-methoxy-5-(methylsulfonyl)phenyl)-N-(2-morpholinoethyl)-6-(pyrazolo[1,5-a]pyrimidin-3-yl)-1H-pyrazolo[4,3-c]pyridin-3-amine]",5.01 to 50.1,> 50.1,5.01 to 50.1,5.01 to 50.1
"COc1ccc(S(=O)(=O)NCCN2CCN(C)CC2)cc1-n1nc(C)c2cnc(-c3cnn4cccnc34)cc21 [Example 18, 4-methoxy-3-(3-methyl-6-(pyrazolo[1,5-a]pyrimidin-3-yl)-1H-pyrazolo[4,3-c]pyridin-1-yl)-N-(2-(4-methylpiperazin-1-yl)ethyl)benzenesulfonamide]",> 50.1,> 50.1,5.01 to 50.1,5.01 to 50.1
"Cc1nn(-c2cc(SCC(N)=O)ccc2OC(F)F)c2cc(-c3cnn4cccnc34)ncc12 [Example 68, 2-((4-(difluoromethoxy)-3-(3-methyl-6-(pyrazolo[1,5-a]pyrimidin-3-yl)-1H-pyrazolo[4,3-c]pyridin-1-yl)phenyl)thio)acetamide]",≤ 5.01,> 50.1,5.01 to 50.1,≤ 5.01
"COc1ccc(Cl)cc1-n1nc(NC(C)=O)c2cnc(-c3cnn4cccnc34)cc21 [Example 40, N-(1-(5-chloro-2-methoxyphenyl)-6-(pyrazolo[1,5-a]pyrimidin-3-yl)-1H-pyrazolo[4,3-c]pyridin-3-yl)acetamide]",≤ 5.01,5.01 to 50.1,≤ 5.01,≤ 5.01
"Cc1nn(-c2cc(Cl)ccc2OC2CC2)c2cc(-c3cnn4cccnc34)ncc12 [Example 7, 1-(5-chloro-2-cyclopropoxyphenyl)-3-methyl-6-(pyrazolo[1,5-a]pyrimidin-3-yl)-1H-pyrazolo[4,3-c]pyridine]",≤ 5.01,5.01 to 50.1,5.01 to 50.1,≤ 5.01
"Cc1nn(-c2cc(Cl)ccc2CO)c2cc(-c3cnn4cccnc34)ncc12 [Example 62, (4-chloro-2-(3-methyl-6-(pyrazolo[1,5-a]pyrimidin-3-yl)-1H-pyrazolo[4,3-c]pyridin-1-yl)phenyl)methanol]",5.01 to 50.1,> 50.1,> 50.1,5.01 to 50.1
"Cc1nn(-c2cc(S(C)(=O)=O)ccc2OC(F)F)c2cc(-c3cnn4cccnc34)ncc12 [Example 26, 1-(2-(difluoromethoxy)-5-(methylsulfonyl)phenyl)-3-methyl-6-(pyrazolo[1,5-a]pyrimidin-3-yl)-1H-pyrazolo[4,3-c]pyridine]",≤ 5.01,5.01 to 50.1,≤ 5.01,≤ 5.01
